Assay results taken from patent US11555012B2 (Nimbus Artemis, Inc., priority 2018, dated 2023).

Each compound was assayed against T1, ACL (Homo sapiens (Human), UniProt P53396) (assay: ACLY-MDH Coupled Assay). Settings: not given.
Target sequence in this assay (P53396 whole entry, species assumed): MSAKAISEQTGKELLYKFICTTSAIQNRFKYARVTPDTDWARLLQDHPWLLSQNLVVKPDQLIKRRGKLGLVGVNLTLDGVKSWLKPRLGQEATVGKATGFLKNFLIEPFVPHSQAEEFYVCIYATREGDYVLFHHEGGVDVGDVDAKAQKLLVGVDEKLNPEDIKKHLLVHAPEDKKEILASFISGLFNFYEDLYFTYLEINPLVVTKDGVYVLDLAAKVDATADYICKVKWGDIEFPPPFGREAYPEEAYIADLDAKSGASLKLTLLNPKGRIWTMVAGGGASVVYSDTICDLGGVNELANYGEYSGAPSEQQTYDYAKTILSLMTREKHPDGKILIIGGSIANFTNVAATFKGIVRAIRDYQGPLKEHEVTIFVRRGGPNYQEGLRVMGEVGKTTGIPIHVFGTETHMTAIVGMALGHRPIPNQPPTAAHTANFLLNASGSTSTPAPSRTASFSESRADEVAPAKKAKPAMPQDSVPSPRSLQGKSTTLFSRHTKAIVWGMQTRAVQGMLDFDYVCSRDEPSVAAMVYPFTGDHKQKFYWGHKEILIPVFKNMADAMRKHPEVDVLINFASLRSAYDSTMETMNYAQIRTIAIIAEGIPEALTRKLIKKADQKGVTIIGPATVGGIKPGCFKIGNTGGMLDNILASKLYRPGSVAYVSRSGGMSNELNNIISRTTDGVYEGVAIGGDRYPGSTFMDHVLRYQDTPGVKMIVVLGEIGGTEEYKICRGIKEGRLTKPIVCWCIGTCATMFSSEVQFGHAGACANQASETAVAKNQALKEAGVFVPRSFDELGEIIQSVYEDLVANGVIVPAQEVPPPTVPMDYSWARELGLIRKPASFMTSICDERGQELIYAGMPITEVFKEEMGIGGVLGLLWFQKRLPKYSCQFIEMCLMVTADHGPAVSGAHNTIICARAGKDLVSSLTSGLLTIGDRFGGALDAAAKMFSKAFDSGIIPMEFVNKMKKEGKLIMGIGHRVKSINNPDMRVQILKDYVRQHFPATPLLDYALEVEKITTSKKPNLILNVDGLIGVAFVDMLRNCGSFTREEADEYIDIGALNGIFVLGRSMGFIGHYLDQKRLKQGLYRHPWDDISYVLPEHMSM

| IC50 | Structure (SMILES) |
| --- | --- |
| 0.5 to 30 µM | COc1ccc(-c2ccccc2)cc1NS(=O)(=O)c1cc(C(=O)O)cc(Cl)c1O [I-2, 3-chloro-4-hydroxy-5-(N-(4-methoxy-[1,1′-biphenyl]-3-yl)sulfamoyl)benzoic Acid] |

These compounds were tested against T1, ACL (assay: ADP-Glo Assay). Settings: not given.
Target sequence in this assay (P53396 other isoform, or with tags, fused parts or gaps isoform P53396-2): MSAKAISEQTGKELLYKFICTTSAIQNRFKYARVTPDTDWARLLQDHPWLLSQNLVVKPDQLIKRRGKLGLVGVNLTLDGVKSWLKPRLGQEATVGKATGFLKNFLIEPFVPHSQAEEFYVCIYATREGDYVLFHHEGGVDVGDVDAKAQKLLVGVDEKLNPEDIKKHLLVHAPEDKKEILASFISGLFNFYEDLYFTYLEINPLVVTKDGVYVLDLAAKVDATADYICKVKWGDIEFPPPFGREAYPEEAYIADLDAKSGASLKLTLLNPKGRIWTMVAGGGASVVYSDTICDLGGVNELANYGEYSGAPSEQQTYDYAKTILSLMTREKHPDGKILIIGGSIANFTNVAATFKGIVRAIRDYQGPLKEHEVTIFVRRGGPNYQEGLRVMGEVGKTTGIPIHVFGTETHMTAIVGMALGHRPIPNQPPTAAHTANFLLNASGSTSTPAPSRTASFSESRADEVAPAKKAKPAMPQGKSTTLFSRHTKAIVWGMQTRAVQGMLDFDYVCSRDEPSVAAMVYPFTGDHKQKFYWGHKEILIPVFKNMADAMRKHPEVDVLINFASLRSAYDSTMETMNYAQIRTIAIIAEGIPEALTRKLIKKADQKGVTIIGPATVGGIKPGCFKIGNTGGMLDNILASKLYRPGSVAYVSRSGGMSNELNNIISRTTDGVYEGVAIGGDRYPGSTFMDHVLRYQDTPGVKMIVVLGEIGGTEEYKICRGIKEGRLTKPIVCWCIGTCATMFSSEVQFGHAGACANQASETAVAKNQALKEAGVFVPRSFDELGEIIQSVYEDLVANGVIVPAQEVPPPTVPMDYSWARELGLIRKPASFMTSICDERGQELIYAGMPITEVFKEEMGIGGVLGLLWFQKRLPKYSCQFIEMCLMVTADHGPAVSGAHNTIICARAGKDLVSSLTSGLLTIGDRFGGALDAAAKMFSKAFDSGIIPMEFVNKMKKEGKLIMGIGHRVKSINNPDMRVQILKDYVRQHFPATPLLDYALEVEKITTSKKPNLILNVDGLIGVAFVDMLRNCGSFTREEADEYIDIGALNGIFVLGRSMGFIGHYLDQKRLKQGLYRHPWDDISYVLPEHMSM

| IC50 | Structure (SMILES) |
| --- | --- |
| 0.5 to 20 µM | COc1ccc(-c2ccccc2)cc1NS(=O)(=O)c1cc(C(=O)O)cc(Cl)c1O [I-2, 3-chloro-4-hydroxy-5-(N-(4-methoxy-[1,1′-biphenyl]-3-yl)sulfamoyl)benzoic Acid] |
| > 20 µM | COc1ccc(-c2ccccc2)cc1NS(=O)(=O)c1cc(Cl)cc(C#N)c1 [I-422, 3-chloro-5-cyano-N-(2-methoxy-5-phenylphenyl)benzene-1-sulfonamide] |
| > 20 µM | CS(=O)(=O)NC(=O)c1ccc(F)c(NS(=O)(=O)c2cc(Cl)cc(Cl)c2O)c1 [I-423, 3-[(3,5-dichloro-2-hydroxybenzene)sulfonamido]-4-fluoro-N-methanesulfonylbenzamide] |
| > 20 µM | O=S(=O)(Nc1cc(-c2ccccc2)ccc1F)c1cc(-c2nn[nH]n2)ccc1F [I-424, 2-fluoro-N-(2-fluoro-5-phenylphenyl)-5-(2H-1,2,3,4-tetrazol-5-yl)benzene-1-sulfonamide] |
| > 20 µM | COc1ccc(-c2cccnc2)cc1NS(=O)(=O)c1cc(C(=O)O)cc(Cl)c1OC [I-425, 3-chloro-4-methoxy-5-(N-(2-methoxy-5-(pyridin-3-yl)phenyl)sulfamoyl)benzoic Acid] |
| > 20 µM | COc1ccc(-c2ccccc2)cc1N(C)S(=O)(=O)c1cc(C(=O)O)cc(Cl)c1O [I-426, 3-chloro-4-hydroxy-5-[(2-methoxy-5-phenylphenyl)(methyl)sulfamoyl]benzoic acid] |
| > 20 µM | COc1ccc(-c2cccnc2)cc1NS(=O)(=O)c1cc(C(=O)O)cc(Cl)c1O [I-427, 3-chloro-4-hydroxy-5-(N-(2-methoxy-5-(pyridin-3-yl)phenyl)sulfamoyl)benzoic Acid] |
| > 20 µM | COC(=O)c1cc(Cl)c(OC)c(S(=O)(=O)Nc2cc(-c3ccccc3)ccc2OC)c1 [I-428, Methyl 3-chloro-4-methoxy-5-(N-(4-methoxy-[1,1′-biphenyl]-3-yl)sulfamoyl)benzoate] |
| > 20 µM | NC(=O)c1ccc(F)c(S(=O)(=O)Nc2cc(-c3ccccc3)ccc2F)c1 [I-429, 4-fluoro-3-(N-(4-fluoro-[1,1′-biphenyl]-3-yl)sulfamoyl)benzamide] |
| > 20 µM | COc1ccc(-c2ccccc2)cc1NS(=O)(=O)c1cc(Cl)cc(C(=O)O)c1OC [I-430, 5-chloro-2-methoxy-3-(N-(4-methoxy-[1,1′-biphenyl]-3-yl)sulfamoyl)benzoic Acid] |
| > 20 µM | COC(=O)c1cc(Cl)cc(S(=O)(=O)Nc2cc(-c3ccccc3)ccc2OC)c1O [I-431, Methyl 5-chloro-2-hydroxy-3-(N-(4-methoxy-[1,1′-biphenyl]-3-yl)sulfamoyl)benzoate] |
| > 20 µM | COc1ccc(-c2ccccc2)cc1NS(=O)(=O)c1cc(C(N)=O)cc(Cl)c1OC [I-432, 3-chloro-4-methoxy-5-(N-(4-methoxy-[1,1′-biphenyl]-3-yl)sulfamoyl)benzamide] |
| > 20 µM | CNC(=O)c1cc(Cl)c(OC)c(S(=O)(=O)Nc2cc(-c3ccccc3)ccc2OC)c1 [I-433, 3-chloro-4-methoxy-5-(N-(4-methoxy-[1,1′-biphenyl]-3-yl)sulfamoyl)-N-methylbenzamide] |
| > 20 µM | COc1ccc(-c2ccccc2)cc1NS(=O)(=O)c1cc(C(=O)N(C)C)cc(Cl)c1OC [I-434, 3-chloro-4-methoxy-5-(N-(4-methoxy-[1,1′-biphenyl]-3-yl)sulfamoyl)-N,N-dimethylbenzamide] |
| > 20 µM | COC(=O)c1cc(Cl)cc(S(=O)(=O)Nc2cc(-c3ccccc3)ccc2OC)c1OC [I-435, Methyl 5-chloro-2-methoxy-3-(N-(4-methoxy-[1,1′-biphenyl]-3-yl)sulfamoyl)benzoate] |
| > 20 µM | COc1ccc(-c2ccccc2)cc1NS(=O)(=O)c1cccc(-c2nnn(C)n2)c1 [I-436, N-(2-methoxy-5-phenylphenyl)-3-(2-methyl-2H-1,2,3,4-tetrazol-5-yl)benzene-1-sulfonamide] |
| > 20 µM | COc1ccc(-c2ccccc2)cc1NS(=O)(=O)c1cccc(-c2nnnn2C)c1 [I-437, N-(2-methoxy-5-phenylphenyl)-3-(1-methyl-1H-1,2,3,4-tetrazol-5-yl)benzene-1-sulfonamide] |
| > 20 µM | COc1ccc(-c2ccccc2)cc1NS(=O)(=O)c1cc(C(=O)O)ccc1Cl [I-438, 4-chloro-3-[(2-methoxy-5-phenylphenyl)sulfamoyl]benzoic acid] |
| > 20 µM | COc1ccc(-c2ccccc2)cc1NS(=O)(=O)c1cc(CC(=O)O)cc(Cl)c1OC [I-439, 2-[3-chloro-4-methoxy-5-[(2-methoxy-5-phenylphenyl)sulfamoyl]phenyl]acetic Acid] |
| > 20 µM | CCC(=O)Nc1c(Cl)cc(Cl)cc1S(=O)(=O)Nc1cc(-c2ccccc2)ccc1OC [I-440, N-[2,4-dichloro-6-[(2-methoxy-5-phenylphenyl)sulfamoyl]phenyl]propanamide] |
| > 20 µM | COc1ccccc1S(=O)(=O)Nc1cc(-c2ccccc2)ccc1F [I-441, N-[4-fluoro-[1,1-biphenyl]-3-yl]-2-methoxybenzene-1-sulfonamide] |

| IC50 | Structure (SMILES) |
| --- | --- |
| > 20 µM | COc1ccc(-c2ccccc2)cc1NS(=O)(=O)c1cc(-c2nn[nH]n2)ccc1OC [I-442, 2-methoxy-N-(2-methoxy-5-phenylphenyl)-5-(2H-1,2,3,4-tetrazol-5-yl)benzene-1-sulfonamide] |
| > 20 µM | Cn1ccc(Oc2c(Cl)cc(Cl)cc2S(=O)(=O)Nc2cc(-c3ccccc3)ccc2F)n1 [I-443, 3,5-dichloro-N-(4-fluoro-[1,1′-biphenyl]-3-yl)-2-((1-methyl-1H-pyrazol-3-yl)oxy)benzenesulfonamide] |
| > 20 µM | O=C(O)c1cc(Cl)c(O)c(S(=O)(=O)Nc2ccc(F)c(-c3ccccc3)c2F)c1 [I-444, 3-chloro-5-[(2,4-difluoro-3-phenylphenyl)sulfamoyl]-4-hydroxybenzoic acid] |
| > 20 µM | O=C(O)c1ccc(-c2ccccc2)cc1NS(=O)(=O)c1cn[nH]c1 [I-445] |
| 0.05 to 0.5 µM | O=C(O)c1cc(Cl)c(O)c(S(=O)(=O)Nc2cc(-c3cc4ccccc4s3)c(F)cc2F)c1 [I-507, 3-(N-(5-(benzo[b]thiophen-2-yl)-2,4-difluorophenyl)sulfamoyl)-5-chloro-4-hydroxybenzoic Acid] |
| 0.5 to 20 µM | CC#Cc1cc(Cl)ccc1N(C)S(=O)(=O)c1cc(Br)cc(Cl)c1O [I-516, 5-bromo-3-chloro-N-(4-chloro-2-(prop-1-yn-1-yl)phenyl)-2-hydroxy-N-methylbenzenesulfonamide] |
| 0.5 to 20 µM | COc1cc(F)c(-c2cc3ccccc3s2)cc1NS(=O)(=O)c1cc(C(=O)O)cc(F)c1O [I-517, 3-(N-(5-(benzo[b]thiophen-2-yl)-4-fluoro-2-methoxyphenyl)sulfamoyl)-5-fluoro-4-hydroxybenzoic Acid] |
| 0.5 to 20 µM | O=C(Nc1cc(Br)ccc1C(=O)O)c1cc(Cl)cc(Cl)c1 [I-519, 4-bromo-2-(3,5-dichlorobenzamido)benzoic Acid] |
| > 20 µM | O=C(O)c1ccccc1NS(=O)(=O)c1cc(Cl)cc(Cl)c1 [I-522, 2-((3,5-dichlorophenyl)sulfonamido)benzoic acid] |
| > 20 µM | CCS(=O)(=O)Nc1ccc(S(=O)(=O)Nc2cc(-c3ccccc3)ccc2F)c(OC)c1 [I-523, 4-(ethylsulfonamido)-N-(4-fluoro-[1,1′-biphenyl]-3-yl)-2-methoxybenzenesulfonamide] |
| > 20 µM | CC(C)S(=O)(=O)Nc1ccc(S(=O)(=O)Nc2cc(-c3ccccc3)ccc2F)cc1F [I-524, 3-fluoro-N-(4-fluoro-[1,1′-biphenyl]-3-yl)-4-((1-methylethyl)sulfonamido)benzenesulfonamide] |
| > 20 µM | COC(=O)c1ccnc(NS(=O)(=O)c2cc(Cl)cc(Cl)c2O)c1 [I-525, methyl 2-((3,5-dichloro-2-hydroxyphenyl)sulfonamido)isonicotinate] |
| > 20 µM | Cc1ccc(S(=O)(=O)Nc2cc(-c3ccccc3)ccc2F)c(C)c1OCC(=O)O [I-526, 2-(3-(N-(4-fluoro-[1,1′-biphenyl]-3-yl)sulfamoyl)-2,6-dimethylphenoxy)acetic acid] |
| > 20 µM | Cc1ccc(C(=O)O)c(NS(=O)(=O)c2cc(Cl)cc(Cl)c2)n1 [I-527, 2-((3,5-dichlorophenyl)sulfonamido)-6-methylnicotinic acid] |
| > 20 µM | COc1ccc(-c2ccccc2)cc1NS(=O)(=O)c1ccccc1O [I-528, 2-hydroxy-N-(4-methoxy-[1,1′-biphenyl]-3-yl)benzenesulfonamide] |
| > 20 µM | COc1ccc(C(=O)O)cc1S(=O)(=O)Nc1cc(-c2ccccc2)c(F)cc1F [I-529, 3-(N-(4,6-difluoro-[1,1′-biphenyl]-3-yl)sulfamoyl)-4-methoxybenzoic acid] |
| > 20 µM | COC(=O)Cc1ccc(-c2ccccc2)cc1NS(=O)(=O)c1cc(Cl)cc(Cl)c1 [I-530, methyl 2-(3-((3,5-dichlorophenyl)sulfonamido)-[1,1′-biphenyl]-4-yl)acetate] |
| > 20 µM | O=C(O)c1cc(NC(=O)c2cccc3ncccc23)ccc1Cl [I-531, 2-chloro-5-(quinoline-5-carboxamido)benzoic acid] |
| > 20 µM | Cc1cccc(C(=O)O)c1NS(=O)(=O)c1cc(Cl)cc(Cl)c1 [I-533, 2-((3,5-dichlorophenyl)sulfonamido)-3-methylbenzoic acid] |
| > 20 µM | O=C(O)c1cc(NC(=O)c2cc(F)cc3nc[nH]c23)ccc1Cl [I-535, 2-chloro-5-(5-fluoro-1H-benzo[d]imidazole-7-carboxamido)benzoic acid] |
| > 20 µM | O=C(O)c1cc(Cl)c(O)c(S(=O)(=O)Nc2cc(-c3ccccc3)ccn2)c1 [I-536] |

Same assay, conditions: read-out: ACL-ADP-Glo (IC50); 3 nM ACL, 15 μM ATP, 3 μM CoA, 300 μM Citrate

| IC50 | Structure (SMILES) |
| --- | --- |
| < 0.05 µM | CCOC(=O)c1cc(Cl)c(O)c(S(=O)(=O)Nc2cc(-c3cc4ccccc4s3)c(F)cc2OC)c1 [I-506, ethyl 3-(N-(5-(benzo[b]thiophen-2-yl)-4-fluoro-2-methoxyphenyl)sulfamoyl)-5-chloro-4-hydroxybenzoate] |
| 0.5 to 20 µM | CN(C)C(=O)c1cc(Cl)c(O)c(S(=O)(=O)Nc2cc(-c3ccccc3)ccc2C(=O)O)c1 [I-518, 3-((3-chloro-5-(dimethylcarbamoyl)-2-hydroxyphenyl)sulfonamido)-[1,1′-biphenyl]-4-carboxylic Acid] |
